The experiment has as its system NF-κB activation. Put plainly: NF-κB activation reporter assay (pNFκB-Luc luciferase) under TNF-α stimulation. Type of experiment: cell-based, human. The conditions noted are these: Homo sapiens, HepG2 or HeLa cells, TNF-α 40 ng/ml, 4 hours, read-out: The rate of inhibitory activity against NF-κB activation (%); for inhibition at 1 µg/mL: Concentration of the agent: 1 μg/mL; for inhibition at 10 µg/mL: Concentration of the agent: 10 μg/mL. Background: A reporter such as luciferase makes a cellular process visible.

Structures are written as SMILES.

With `O=C(Nc1cc(Cl)cc(Cl)c1)c1cc(Br)ccc1O` [Compound 148], the inhibition at 1 µg/mL amounted to 77.1% and the inhibition at 10 µg/mL worked out at 92.8%. In the same order, the values of `O=C(Nc1cc(Cl)cc(Cl)c1)c1cc(I)ccc1O` [Compound 149] are 85.4% and 97.1%. Consider `O=C(Nc1cc(Cl)cc(Cl)c1)c1cc(Br)cc(Br)c1O` [Compound 150], for which the inhibition at 1 µg/mL turned out to be 91.4% and the inhibition at 10 µg/mL was found to be 95.1%. In the same order, the values of `O=C(Nc1cc(Cl)cc(Cl)c1)c1ccc(Cl)cc1O` [Compound 151] are -42.8% and 71.8%. Consider `O=C(Nc1cc(Cl)cc(Cl)c1)c1cc([N+](=O)[O-])ccc1O` [Compound 152], for which the inhibition at 1 µg/mL was -56.8% and the inhibition at 10 µg/mL was 70.6%.

Consider `Cc1ccc(O)c(C(=O)Nc2cc(Cl)cc(Cl)c2)c1` [Compound 153], for which the inhibition at 1 µg/mL was 49.1% and the inhibition at 10 µg/mL came to 88.7%. Regarding `COc1ccc(O)c(C(=O)Nc2cc(Cl)cc(Cl)c2)c1` [Compound 154], the inhibition at 1 µg/mL is -31% and the inhibition at 10 µg/mL stood at 48.2%. As for `O=C(Nc1cc(Cl)c(Cl)c(Cl)c1)c1cc(Br)ccc1O` [Compound 155], the inhibition at 1 µg/mL was 85.6% and the inhibition at 10 µg/mL worked out at 94.1%. Take `O=C(Nc1cc(Cl)c(O)c(Cl)c1)c1cc(Br)ccc1O` [Compound 156]: the inhibition at 1 µg/mL stood at 7.3% and the inhibition at 10 µg/mL was determined as 74.9%. As to `O=C(Nc1c(F)c(F)c(F)c(F)c1F)c1cc(Cl)ccc1O` [Compound 157], the inhibition at 1 µg/mL was determined as 86.2% and the inhibition at 10 µg/mL worked out at 98.1%. The like results for `O=C(Nc1cc([N+](=O)[O-])cc([N+](=O)[O-])c1)c1cc(Br)ccc1O` [Compound 158] were, in that order, 91% and 95.6%. The like results for `CC(C)(C)c1ccc(C(C)(C)C)c(NC(=O)c2cc(Cl)ccc2O)c1` [Compound 159] were, in that order, 89.1% and 96.3%. In the same order, the values of `Cc1cc(C)cc(NC(=O)c2cc(Br)ccc2O)c1` [Compound 161] are 86.3% and 92.6%. Turning to `CC(C)(C)c1cc(NC(=O)c2cc(Br)ccc2O)cc(C(C)(C)C)c1` [Compound 163], the inhibition at 1 µg/mL was determined as 70.9% and the inhibition at 10 µg/mL amounted to 82%.

In the case of `O=C(Nc1cccc(-c2ccccc2)c1)c1cc(Cl)ccc1O` [Compound 165], the inhibition at 1 µg/mL came to 88.2% and the inhibition at 10 µg/mL was 95.1%.

On to `COc1ccc(-c2ccccc2)cc1NC(=O)c1cc(Cl)ccc1O` [Compound 166], for which the inhibition at 1 µg/mL was 82.4% and the inhibition at 10 µg/mL amounted to 97.9%. Consider `COc1ccc(OC)c(NC(=O)c2cc(Br)ccc2O)c1` [Compound 167], for which the inhibition at 1 µg/mL was determined as 32.4% and the inhibition at 10 µg/mL was 95.7%. The like results for `COc1cc(NC(=O)c2cc(Br)ccc2O)cc(OC)c1` [Compound 168] were, in that order, 38.3% and 96.8%. In the same order, the values of `CC(=O)c1cccc(NC(=O)c2cc(Cl)ccc2O)c1` [Compound 169] are 14.5% and 88.1%. In the same order, the values of `O=C(Nc1nccs1)c1cc(Br)ccc1O` [Compound 180] are -23.1% and 42.8%. As for `O=C(Nc1nc(C(F)(F)F)c(Br)s1)c1cc(Br)ccc1O` [Compound 182], the inhibition at 1 µg/mL worked out at 85.3% and the inhibition at 10 µg/mL stood at 94.4%. Consider `CC(C)(C)c1nc(NC(=O)c2cc(Br)ccc2O)sc1C#N` [Compound 184], for which the inhibition at 1 µg/mL came out at 20% and the inhibition at 10 µg/mL was 93.8%. The like results for `Cc1cnc(NC(=O)c2cc(Br)ccc2O)s1` [Compound 185] were, in that order, -1.5% and 69.7%. Take `Cc1nc(NC(=O)c2cc(Br)ccc2O)sc1C` [Compound 187]: the inhibition at 1 µg/mL came to 4.6% and the inhibition at 10 µg/mL was 67.2%. On to `Cc1sc(NC(=O)c2cc(Br)ccc2O)nc1-c1ccccc1` [Compound 188], for which the inhibition at 1 µg/mL was 83.6% and the inhibition at 10 µg/mL is 94.4%. As for `Cc1nc(NC(=O)c2cc(Br)ccc2O)sc1-c1cccc(C(F)(F)F)c1` [Compound 190], the inhibition at 1 µg/mL was -32.4%. Consider `CCc1nc(NC(=O)c2cc(Br)ccc2O)sc1-c1ccccc1` [Compound 192], for which the inhibition at 1 µg/mL is 28.8% and the inhibition at 10 µg/mL was found to be 87.6%. In the same order, the values of `O=C(Nc1nc(-c2ccccc2)cs1)c1cc(Br)ccc1O` [Compound 202] are -41.8% and 78.8%. In the same order, the values of `O=C(O)Cc1sc(NC(=O)c2cc(Br)ccc2O)nc1-c1ccccc1` [Compound 203] are 2.4% and 72.1%. The like results for `O=C(Nc1nc(-c2ccccc2)c(-c2ccccc2)s1)c1cc(Br)ccc1O` [Compound 204] were, in that order, -5.3% and 67%. Regarding `O=C(Nc1nc(Cc2ccccc2)c(-c2ccccc2)s1)c1cc(Br)ccc1O` [Compound 205], the inhibition at 1 µg/mL is 79.7% and the inhibition at 10 µg/mL was determined as 95%. In the same order, the values of `O=C(Nc1nc(C(F)(F)F)c(-c2ccccc2)s1)c1cc(Br)ccc1O` [Compound 206] are 85.1% and 89.4%. The like results for `CCOC(=O)c1sc(NC(=O)c2cc(Br)ccc2O)nc1C(F)(F)F` [Compound 216] were, in that order, 87.6% and 96.5%.

Consider `CCOC(=O)c1sc(NC(=O)c2cc(-n3cccc3)ccc2O)nc1-c1ccccc1` [Compound 222], for which the inhibition at 1 µg/mL was 74% and the inhibition at 10 µg/mL worked out at 90.1%.

The values above are taken from patent US8097759B2, “Inflammatory cytokine release inhibitor” (Institute of Medicinal Molecular Design, Inc., priority 2000, dated 2012).
